Reference: ChEMBL document CHEMBL4321825, “Discovery of a Series of 5-Azaquinazolines as Orally Efficacious IRAK4 Inhibitors Targeting MyD88L265P Mutant Diffuse Large B Cell Lymphoma” (J Med Chem, 2019)
Converted amounts (≈) assume the structure as drawn. The source made the active and inactive calls. The rule behind the calls is not given here.

How the values were obtained:
[1] = biological target: T1, Interleukin-1 receptor-associated kinase 4 (Homo sapiens) (UniProt Q9NWZ3); experiment: Inhibition of IRAK4 (unknown origin) at 0.1 uM relative to control
T1 sequence (whole entry): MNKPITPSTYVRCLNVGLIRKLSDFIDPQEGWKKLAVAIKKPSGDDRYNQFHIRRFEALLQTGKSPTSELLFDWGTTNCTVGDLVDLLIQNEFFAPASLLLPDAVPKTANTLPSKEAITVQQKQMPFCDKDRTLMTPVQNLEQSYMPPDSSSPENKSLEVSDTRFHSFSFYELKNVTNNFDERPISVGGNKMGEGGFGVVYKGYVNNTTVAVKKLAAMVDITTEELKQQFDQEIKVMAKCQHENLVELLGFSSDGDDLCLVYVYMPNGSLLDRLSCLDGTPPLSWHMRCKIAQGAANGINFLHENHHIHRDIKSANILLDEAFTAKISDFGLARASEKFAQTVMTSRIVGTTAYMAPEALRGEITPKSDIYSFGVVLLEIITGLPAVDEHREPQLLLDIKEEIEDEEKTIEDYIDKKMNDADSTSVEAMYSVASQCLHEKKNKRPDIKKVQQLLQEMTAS

[2] = system: OCI-Ly10; experiment: Antitumor activity against human OCI-LY10 cells xenografted in CB.17 SCID mouse assessed as inhibition of tumor growth at 100 mg/kg, po QD dosed 34 days after tumor cell inoculation; format: functional, organism-based
[3] = biological target: Dual specificity protein kinase CLK4 (Homo sapiens, UniProt Q9HAZ1); experiment: Inhibition of human recombinant CLK4 expressed in Baculovirus system
Sequence of Dual specificity protein kinase CLK4 (Q9HAZ1 whole entry): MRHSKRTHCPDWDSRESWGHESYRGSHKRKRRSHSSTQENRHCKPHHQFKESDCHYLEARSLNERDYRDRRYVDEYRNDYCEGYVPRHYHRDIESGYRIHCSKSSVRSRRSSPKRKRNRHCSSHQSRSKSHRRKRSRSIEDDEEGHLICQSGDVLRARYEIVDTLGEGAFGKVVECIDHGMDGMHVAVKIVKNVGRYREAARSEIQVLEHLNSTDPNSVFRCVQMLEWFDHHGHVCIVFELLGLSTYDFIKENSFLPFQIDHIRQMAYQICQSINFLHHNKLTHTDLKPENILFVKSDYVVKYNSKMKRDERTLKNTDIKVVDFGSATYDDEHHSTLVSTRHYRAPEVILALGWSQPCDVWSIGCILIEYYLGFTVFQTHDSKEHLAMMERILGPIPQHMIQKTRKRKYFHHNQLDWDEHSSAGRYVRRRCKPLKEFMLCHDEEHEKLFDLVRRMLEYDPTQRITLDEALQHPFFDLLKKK

[4] = Oral bioavailability in Han Wistar rat at 2 mg/kg; format: ADME, organism-based; settings: in vivo
[5] = organism: Homo sapiens; experiment: Selectivity index, ratio of IC50 for inhibition of human recombinant CLK1 expressed in Escherichia coli to IC50 for inhibition of IRAK4 (unknown origin) in presence of 5 mM ATP by enzymatic assay
[6] = system: OCI-Ly10; experiment: Growth inhibition of human OCI-LY10 cells at 0.13 uM incubated for 3 days by Alamar blue dye based fluorescence assay (reference value: 3%); format: functional; settings: OCI-Ly10, 72 h, read-out: GI
[7] = biological target: T2, Interleukin-1 receptor-associated kinase 4 (Homo sapiens, UniProt Q9NWZ3); experiment: Inhibition of IRAK4 (unknown origin) in presence of 5 mM ATP by enzymatic assay
T2 sequence (Q9NWZ3 whole entry): T1 sequence (whole entry)

[8] = system: OCI-Ly10; experiment: Growth inhibition of human OCI-LY10 cells at 1.7 uM incubated for 3 days by Alamar blue dye based fluorescence assay (reference value: 3%); format: functional; settings: OCI-Ly10, 72 h, read-out: GI
[9] = Plasma clearance in Han Wistar rat at 1 mg/kg, iv; format: ADME, organism-based
[10] = Unbound fraction in rat plasma at 37 degC by equilibrium dialysis; format: ADME, cell-free
[11] = organism: Homo sapiens; experiment: Selectivity index, ratio of IC50 for inhibition of IRAK1 (unknown origin) to IC50 for inhibition of IRAK4 (unknown origin) in presence of 5 mM ATP by enzymatic assay
[12] = organism: Homo sapiens; experiment: Selectivity index, ratio of IC50 for inhibition of human recombinant CDK8/cyclinC expressed in Baculovirus system to IC50 for inhibition of IRAK4 (unknown origin) in presence of 5 mM ATP by enzymatic assay
[13] = biological target: Cyclin-dependent kinase 9 (Homo sapiens, UniProt P50750); experiment: Inhibition of CDK9 (unknown origin)
Sequence of Cyclin-dependent kinase 9 (P50750 whole entry): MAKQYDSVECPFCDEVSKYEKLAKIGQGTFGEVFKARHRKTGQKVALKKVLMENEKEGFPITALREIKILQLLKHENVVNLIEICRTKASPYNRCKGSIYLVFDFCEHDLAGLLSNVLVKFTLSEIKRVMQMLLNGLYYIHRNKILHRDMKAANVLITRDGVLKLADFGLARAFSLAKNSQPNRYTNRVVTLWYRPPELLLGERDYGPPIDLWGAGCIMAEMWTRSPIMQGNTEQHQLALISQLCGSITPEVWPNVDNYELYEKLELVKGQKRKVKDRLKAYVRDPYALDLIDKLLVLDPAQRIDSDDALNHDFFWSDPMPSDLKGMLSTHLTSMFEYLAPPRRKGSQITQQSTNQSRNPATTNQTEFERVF

[14] = system: OCI-LY19; experiment: Growth inhibition of human OCI-LY19 cells at 0.13 uM incubated for 3 days by Alamar blue dye based fluorescence assay (reference value: 3%); format: functional; settings: OCI-LY19, 72 h, read-out: GI
[15] = Aqueous solubility in pH 7.4 phosphate buffer; format: physicochemical
[16] = organism: Homo sapiens; experiment: Selectivity index, ratio of IC50 for inhibition of CDK9 (unknown origin) to IC50 for inhibition of IRAK4 (unknown origin) in presence of 5 mM ATP by enzymatic assay
[17] = Efflux ratio in human Caco2 cells; format: ADME, cell-based; settings: Caco-2
[18] = biological target: T3, Interleukin-1 receptor-associated kinase 1 (Homo sapiens, UniProt P51617); experiment: Inhibition of IRAK1 (unknown origin) at 0.1 uM relative to control
Target sequence in this assay (P51617 whole entry, looked up): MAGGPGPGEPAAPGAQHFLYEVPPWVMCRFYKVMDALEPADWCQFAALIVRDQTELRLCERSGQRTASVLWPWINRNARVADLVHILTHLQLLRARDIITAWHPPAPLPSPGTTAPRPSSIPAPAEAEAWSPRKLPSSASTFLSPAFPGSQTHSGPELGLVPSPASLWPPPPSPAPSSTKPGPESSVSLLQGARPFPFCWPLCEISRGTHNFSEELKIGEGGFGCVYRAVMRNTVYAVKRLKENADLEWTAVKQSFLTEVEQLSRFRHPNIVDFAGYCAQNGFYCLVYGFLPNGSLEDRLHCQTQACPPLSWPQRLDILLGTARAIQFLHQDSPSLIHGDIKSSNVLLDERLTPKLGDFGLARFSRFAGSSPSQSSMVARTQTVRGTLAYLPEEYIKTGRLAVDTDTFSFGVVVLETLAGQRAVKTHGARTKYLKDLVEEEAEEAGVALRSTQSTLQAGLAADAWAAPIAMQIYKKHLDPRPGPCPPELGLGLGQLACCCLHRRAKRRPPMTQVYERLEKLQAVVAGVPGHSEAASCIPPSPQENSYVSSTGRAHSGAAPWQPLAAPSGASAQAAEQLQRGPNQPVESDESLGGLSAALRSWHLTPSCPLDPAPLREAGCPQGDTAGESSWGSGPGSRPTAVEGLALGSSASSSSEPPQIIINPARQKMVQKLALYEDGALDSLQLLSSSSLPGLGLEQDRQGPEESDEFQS

[19] = biological target: CDK8/Cyclin C (Homo sapiens, UniProt P49336); experiment: Inhibition of human recombinant CDK8/cyclinC expressed in Baculovirus system
Sequence of CDK8/Cyclin C (P49336 whole entry): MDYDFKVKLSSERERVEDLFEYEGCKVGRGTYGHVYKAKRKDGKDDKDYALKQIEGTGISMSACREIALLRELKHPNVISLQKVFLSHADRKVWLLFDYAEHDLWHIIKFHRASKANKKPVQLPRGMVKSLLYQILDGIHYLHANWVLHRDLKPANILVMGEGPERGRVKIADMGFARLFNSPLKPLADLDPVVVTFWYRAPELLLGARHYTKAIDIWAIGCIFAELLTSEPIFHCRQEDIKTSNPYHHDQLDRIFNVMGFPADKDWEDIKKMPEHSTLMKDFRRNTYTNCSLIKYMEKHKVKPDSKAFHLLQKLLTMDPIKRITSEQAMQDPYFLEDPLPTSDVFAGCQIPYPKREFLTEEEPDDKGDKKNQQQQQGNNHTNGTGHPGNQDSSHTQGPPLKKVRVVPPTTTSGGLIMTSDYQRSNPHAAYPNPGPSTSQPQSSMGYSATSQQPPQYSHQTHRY
Sequence of CDK8/Cyclin C (P24863 whole entry, further chain): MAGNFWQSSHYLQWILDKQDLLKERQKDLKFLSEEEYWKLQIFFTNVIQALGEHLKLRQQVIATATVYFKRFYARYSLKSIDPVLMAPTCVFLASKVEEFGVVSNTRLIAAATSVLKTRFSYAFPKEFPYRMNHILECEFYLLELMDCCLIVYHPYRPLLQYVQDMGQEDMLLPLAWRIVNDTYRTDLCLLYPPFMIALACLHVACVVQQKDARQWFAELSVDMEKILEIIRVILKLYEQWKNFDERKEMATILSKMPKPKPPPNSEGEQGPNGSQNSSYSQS

[20] = Intrinsic permeability in human Caco2 cells; format: ADME, cell-based; settings: Caco-2
[21] = biological target: Dual specificity protein kinase CLK3 (Homo sapiens, UniProt P49761); experiment: Inhibition of human recombinant CLK3 expressed in Baculovirus system
Sequence of Dual specificity protein kinase CLK3 (P49761 whole entry): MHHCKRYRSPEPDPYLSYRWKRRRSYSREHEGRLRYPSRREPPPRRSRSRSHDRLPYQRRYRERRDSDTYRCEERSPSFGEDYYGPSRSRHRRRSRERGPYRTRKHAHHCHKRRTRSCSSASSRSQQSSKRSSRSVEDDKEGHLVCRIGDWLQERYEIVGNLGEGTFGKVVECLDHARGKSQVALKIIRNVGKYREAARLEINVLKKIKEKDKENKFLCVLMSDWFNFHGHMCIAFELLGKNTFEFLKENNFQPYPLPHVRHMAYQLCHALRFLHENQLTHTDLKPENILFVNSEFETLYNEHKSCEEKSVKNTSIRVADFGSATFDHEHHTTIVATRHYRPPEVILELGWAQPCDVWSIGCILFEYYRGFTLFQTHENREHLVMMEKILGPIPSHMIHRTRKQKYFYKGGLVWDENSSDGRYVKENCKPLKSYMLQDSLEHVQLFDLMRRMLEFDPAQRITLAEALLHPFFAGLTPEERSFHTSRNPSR

[22] = system: OCI-LY19; experiment: Growth inhibition of human OCI-LY19 cells at 3.3 uM incubated for 3 days by Alamar blue dye based fluorescence assay (reference value: 3%); format: functional; settings: OCI-LY19, 72 h, read-out: GI
[23] = system: OCI-LY19; experiment: Growth inhibition of human OCI-LY19 cells at 0.33 uM incubated for 3 days by Alamar blue dye based fluorescence assay (reference value: 3%); format: functional; settings: OCI-LY19, 72 h, read-out: GI
[24] = biological target: Cyclin-dependent kinase 7 (Homo sapiens, UniProt P50613); experiment: Inhibition of CDK7 (unknown origin)
Sequence of Cyclin-dependent kinase 7 (P50613 whole entry): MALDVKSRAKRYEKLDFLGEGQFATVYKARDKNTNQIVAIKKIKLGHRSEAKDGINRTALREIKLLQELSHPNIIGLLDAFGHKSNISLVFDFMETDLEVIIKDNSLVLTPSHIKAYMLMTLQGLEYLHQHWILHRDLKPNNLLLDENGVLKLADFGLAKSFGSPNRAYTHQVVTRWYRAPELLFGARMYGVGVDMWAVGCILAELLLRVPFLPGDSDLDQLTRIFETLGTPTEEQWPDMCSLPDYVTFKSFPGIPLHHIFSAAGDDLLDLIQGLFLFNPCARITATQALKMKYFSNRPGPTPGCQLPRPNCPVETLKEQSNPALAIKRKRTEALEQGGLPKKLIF

[25] = organism: Homo sapiens; experiment: Selectivity index, ratio of IC50 for inhibition of human recombinant CLK2 expressed in Baculovirus system to IC50 for inhibition of IRAK4 (unknown origin) in presence of 5 mM ATP by enzymatic assay
[26] = Intrinsic clearance in human hepatocytes assessed per million cells; format: ADME, cell-based, Hepatocyte; settings: read-out: CLH
[27] = Lipophilicity, logD of the compound at pH 7.4 by shake-flask assay; format: physicochemical; settings: buffer
[28] = biological target: Dual specificity protein kinase CLK1 (Homo sapiens, UniProt P49759); experiment: Inhibition of human recombinant CLK1 expressed in Escherichia coli
Sequence of Dual specificity protein kinase CLK1 (P49759 whole entry): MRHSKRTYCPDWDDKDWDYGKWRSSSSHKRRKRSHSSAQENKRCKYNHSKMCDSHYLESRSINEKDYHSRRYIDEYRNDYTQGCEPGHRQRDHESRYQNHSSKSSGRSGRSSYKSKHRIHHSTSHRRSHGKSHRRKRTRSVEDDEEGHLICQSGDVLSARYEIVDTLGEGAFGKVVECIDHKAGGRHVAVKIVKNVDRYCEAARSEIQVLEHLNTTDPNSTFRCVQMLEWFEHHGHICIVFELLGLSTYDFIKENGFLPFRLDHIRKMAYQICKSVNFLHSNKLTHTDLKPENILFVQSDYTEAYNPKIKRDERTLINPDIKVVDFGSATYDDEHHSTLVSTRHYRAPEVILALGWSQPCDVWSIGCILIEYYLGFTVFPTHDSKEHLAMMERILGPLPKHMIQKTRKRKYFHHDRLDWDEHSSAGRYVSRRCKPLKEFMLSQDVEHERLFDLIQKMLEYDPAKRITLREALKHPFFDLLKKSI

[29] = system: OCI-Ly10; experiment: Growth inhibition of human OCI-LY10 cells at 10 uM incubated for 3 days by Alamar blue dye based fluorescence assay (reference value: 3%); format: functional; settings: OCI-Ly10, 72 h, read-out: GI
[30] = biological target: T3, Interleukin-1 receptor-associated kinase 1; experiment: Inhibition of IRAK1 (unknown origin)
Target sequence in this assay (P51617 whole entry): as the sequence (P51617 whole entry, looked up) above

[31] = organism: Homo sapiens; experiment: Selectivity index, ratio of IC50 for inhibition of CDK7 (unknown origin) to IC50 for inhibition of IRAK4 (unknown origin) in presence of 5 mM ATP by enzymatic assay
[32] = AUC in SCID mouse at 50 mg/kg, po; format: ADME, organism-based; settings: in vivo
[33] = biological target: Dual specificity protein kinase CLK2 (Homo sapiens, UniProt P49760); experiment: Inhibition of human recombinant CLK2 expressed in Baculovirus system
Sequence of Dual specificity protein kinase CLK2 (P49760 whole entry): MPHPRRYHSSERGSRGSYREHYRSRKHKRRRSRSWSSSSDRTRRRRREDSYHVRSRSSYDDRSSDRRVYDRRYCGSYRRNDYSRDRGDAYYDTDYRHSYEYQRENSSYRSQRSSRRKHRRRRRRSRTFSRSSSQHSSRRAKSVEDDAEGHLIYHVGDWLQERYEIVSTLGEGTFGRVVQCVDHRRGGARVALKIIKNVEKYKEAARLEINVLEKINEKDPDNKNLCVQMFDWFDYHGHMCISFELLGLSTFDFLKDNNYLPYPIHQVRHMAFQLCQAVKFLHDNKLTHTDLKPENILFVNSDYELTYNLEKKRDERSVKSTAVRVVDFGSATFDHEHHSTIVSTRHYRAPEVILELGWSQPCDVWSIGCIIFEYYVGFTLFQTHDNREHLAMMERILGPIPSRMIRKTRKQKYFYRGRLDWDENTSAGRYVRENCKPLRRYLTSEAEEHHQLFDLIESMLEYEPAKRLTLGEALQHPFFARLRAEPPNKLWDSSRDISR

[34] = biological target: T1, Interleukin-1 receptor-associated kinase 4 (Homo sapiens); experiment: Inhibition of IRAK4 in human OCI-LY10 cells assessed as decrease in pIKBalpha levels at 0.3 uM in presence of 3 nM ibrutinib incubated for 14 hrs by Western blotting analysis relative to control; format: cell-based
[35] = system: OCI-Ly10; experiment: Growth inhibition of human OCI-LY10 cells at 3.3 uM incubated for 3 days by Alamar blue dye based fluorescence assay (reference value: 3%); format: functional; settings: OCI-Ly10, 72 h, read-out: GI
[36] = Intrinsic clearance in rat hepatocytes assessed per million cells; format: ADME, cell-based, Hepatocyte; settings: read-out: CLH
[37] = system: OCI-LY19; experiment: Growth inhibition of human OCI-LY19 cells at 1.7 uM incubated for 3 days by Alamar blue dye based fluorescence assay (reference value: 3%); format: functional; settings: OCI-LY19, 72 h, read-out: GI
[38] = organism: Homo sapiens; experiment: Selectivity index, ratio of IC50 for inhibition of human recombinant CLK3 expressed in Baculovirus system to IC50 for inhibition of IRAK4 (unknown origin) in presence of 5 mM ATP by enzymatic assay
[39] = system: OCI-LY19; experiment: Growth inhibition of human OCI-LY19 cells at 10 uM incubated for 3 days by Alamar blue dye based fluorescence assay (reference value: 3%); format: functional; settings: OCI-LY19, 72 h, read-out: GI
[40] = system: OCI-Ly10; experiment: Antitumor activity against human OCI-LY10 cells xenografted in CB.17 SCID mouse assessed as induction of tumor regression at 100 mg/kg, po QD dosed 34 days after tumor cell inoculation and co-treated with 12 mg/kg, po QD ibrutinib; format: functional, organism-based
[41] = biological target: T2, Interleukin-1 receptor-associated kinase 4; experiment: Inhibition of IRAK4 (unknown origin) by cell based assay
[42] = Unbound fraction in human plasma at 37 degC by equilibrium dialysis; format: ADME, cell-free
[43] = organism: Homo sapiens; experiment: Selectivity index, ratio of IC50 for inhibition of human recombinant CLK4 expressed in Baculovirus system to IC50 for inhibition of IRAK4 (unknown origin) in presence of 5 mM ATP by enzymatic assay
[44] = system: OCI-Ly10; experiment: Growth inhibition of human OCI-LY10 cells at 0.33 uM incubated for 3 days by Alamar blue dye based fluorescence assay (reference value: 3%); format: functional; settings: OCI-Ly10, 72 h, read-out: GI
[45] = Unbound fraction in mouse plasma at 37 degC by equilibrium dialysis; format: ADME, cell-free
[46] = Volume of distribution at steady state in Han Wistar rat at 1 mg/kg, iv; format: ADME, organism-based; settings: in vivo, read-out: Vdss

SMILES: COC(=O)N1CCN([C@H]2CC[C@H](Nc3nc(Nc4cnn(C)c4)nc4ccc(CC#N)nc34)CC2)CC1
- inhibition [1]: 104%
- TGI [2]: Active
- IC50 [3]: 1 µM
- bioavailability [4]: 10%
- Ratio IC50 [5]: 775
- inhibition of growth at 0.13 µM [6]: 8%
- IC50 [7]: 0.004 µM
- inhibition of growth at 1.7 µM [8]: 25%
- clearance [9]: 1.5 L/h/kg
- fraction unbound [10]: 0.23
- Ratio IC50 [11]: 6.8
- Ratio IC50 [12]: > 2500
- IC50 [13]: 13 µM
- inhibition of growth at 0.13 µM [14]: 6%
- solubility [15]: 29 µM (≈ 14.6 µg/mL)
- Ratio IC50 [16]: 3250
- efflux ratio [17]: 24
- inhibition [18]: 70%
- IC50 [19]: > 10 µM
- Papp [20]: 93 nm/s
- IC50 [21]: > 10 µM
- inhibition of growth at 3.3 µM [22]: 50%
- inhibition of growth at 0.33 µM [23]: 10%
- IC50 [24]: 17 µM
- Ratio IC50 [25]: 350
- hepatocyte CLint [26]: 10 µL/min/1e6 cells
- logD [27]: 2.3
- IC50 [28]: 3.1 µM
- inhibition of growth at 10 µM [29]: 82%
- IC50 [30]: 0.027 µM
- Ratio IC50 [31]: 4250
- AUC [32]: 23 µM·h
- IC50 [33]: 1.4 µM
- inhibition [34]: 100%
- inhibition of growth at 3.3 µM [35]: 44%
- hepatocyte CLint [36]: 10 µL/min/1e6 cells
- inhibition of growth at 1.7 µM [37]: 31%
- Ratio IC50 [38]: > 2500
- inhibition of growth at 10 µM [39]: 88%
- Activity [40]: Active
- IC50 [41]: 0.046 µM
- fraction unbound [42]: 0.3
- Ratio IC50 [43]: 250
- inhibition of growth at 0.33 µM [44]: 12%
- fraction unbound [45]: 0.44
- Vd [46]: 4.5 L/kg
